The results in this text go back to ChEMBL document CHEMBL3639306, “1H-imidazo[4,5-c]quinolines” (2014).

Each structure is given as a SMILES string.

This assay deals with T1, 3-phosphoinositide-dependent protein kinase 1 (Homo sapiens, UniProt O15530).
T1 sequence (O15530 whole entry): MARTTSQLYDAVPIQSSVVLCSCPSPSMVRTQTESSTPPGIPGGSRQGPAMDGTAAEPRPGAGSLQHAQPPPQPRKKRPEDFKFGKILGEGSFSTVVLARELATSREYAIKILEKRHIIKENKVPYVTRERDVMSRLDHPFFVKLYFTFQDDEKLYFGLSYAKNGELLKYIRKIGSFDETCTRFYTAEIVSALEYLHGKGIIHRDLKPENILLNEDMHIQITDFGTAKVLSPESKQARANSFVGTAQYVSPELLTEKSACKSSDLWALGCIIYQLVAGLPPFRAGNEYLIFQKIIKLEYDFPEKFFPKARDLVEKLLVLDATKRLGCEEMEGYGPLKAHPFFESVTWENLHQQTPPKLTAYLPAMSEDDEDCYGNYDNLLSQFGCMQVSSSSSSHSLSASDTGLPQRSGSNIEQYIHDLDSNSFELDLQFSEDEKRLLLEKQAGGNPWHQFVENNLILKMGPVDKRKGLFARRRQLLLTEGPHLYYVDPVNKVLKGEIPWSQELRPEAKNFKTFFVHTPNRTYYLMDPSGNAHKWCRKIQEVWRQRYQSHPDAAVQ
The experiment in a line: Kinase Assay: Recombinant human PDK1 enzyme (aa 52-556) linked at its N-terminal end to His6 is isolated from baculovirus-infected insect cells. Purified enzyme may be obtained for example from the University of Dundee, Scotland. The following components are combined in a well of a 96-well round-based dish (Greiner bio-one, No. 650101): 1. 15 uL of compound to be tested in varying concentrations (e.g. starting at 10 uM, and diluted in steps of 1:5) in APT buffer (50 mM Tris/Cl pH7.5; 0.05% beta -mercaptoethanol; 10 mM Mg-acetate; 0.0166% Tween 20; 3.33% DMSO) 2. 15 uL His6-PDK1 (aa 52-556) 3.33 ng/well) and PDKtide (KTFCGTPEYLAPEVRRE […]), synthesised by Pepceuticals Limited, Nottingham, United Kingdom; 25 uM final concentration); His6-PDK1 and PDKtide are together diluted accordingly in assay buffer (50 mM tris pH 7.5, 0.05% beta -mercaptoethanol, 10 mM Mg-acetate); PDKtide is present in this mixture as an 83.3 uM solution.

`O=C(NCC#Cc1ccc2ncc3nc[nH]c3c2c1)c1cccn(Cc2ccc(F)c(F)c2)c1=O`: the IC50 (usually the concentration needed to halve the response being measured) was 4 nM.
In the case of `Cc1nc2cnc3ccc(C#CCNC(=O)c4cc(Cl)nn(Cc5ccc(F)c(F)c5)c4=O)cc3c2n1[C@H]1CCCN(C)C1` it was 111 nM; in that of `Cn1c(CCO)nc2cnc3ccc(C#CCNC(=O)c4cncn(Cc5ccc(F)c(F)c5)c4=O)cc3c21`, 14 nM.
